Measured values as given in ChEMBL document CHEMBL1671627, “Increasing trends in antimicrobial resistance among clinically important anaerobes and Bacteroides fragilis isolates causing nosocomial infections: emerging resistance to carbapenems” (2008).

How the values were obtained:
Bacteroides uniformis [1] = experiment: Antibacterial activity against beta-lactamase producing Bacteroides uniformis assessed as resistant isolates by CLSI agar dilution method; assay type: functional
Prevotella intermedia [2] = experiment: Antibacterial activity against Prevotella intermedia by CLSI agar dilution method; assay type: functional
Parvimonas micra [3] = experiment: Antibacterial activity against beta-lactamase producing Micromonas micros assessed as resistant isolates by CLSI agar dilution method; assay type: functional
Fusobacterium mortiferum [4] = experiment: Antibacterial activity against Fusobacterium mortiferum assessed as resistant isolates by CLSI agar dilution method; assay type: functional
Fusobacterium mortiferum [5] = experiment: Antibacterial activity against Fusobacterium mortiferum by CLSI agar dilution method; assay type: functional
Phocaeicola vulgatus [6] = experiment: Antibacterial activity against beta-lactamase producing Bacteroides vulgatus assessed as resistant isolates by CLSI agar dilution method; assay type: functional
Veillonella parvula = experiment: Antibacterial activity against Veillonella parvula by CLSI agar dilution method; assay type: functional
[7] = test system: Peptoniphilus asaccharolyticus; experiment: Antibacterial activity against beta-lactamase producing Peptoniphilus asaccharolyticus assessed as susceptible isolates by CLSI agar dilution method; assay type: functional
Fusobacterium varium [8] = experiment: Antibacterial activity against Fusobacterium varium by CLSI agar dilution method; assay type: functional
[9] = test system: Peptoniphilus asaccharolyticus; experiment: Antibacterial activity against beta-lactamase producing Peptoniphilus asaccharolyticus by CLSI agar dilution method; assay type: functional
[10] = test system: Fusobacterium necrophorum; experiment: Antibacterial activity against Fusobacterium necrophorum assessed as resistant isolates by CLSI agar dilution method; assay type: functional
[11] = test system: Bacteroides thetaiotaomicron; experiment: Antibacterial activity against beta-lactamase producing Bacteroides thetaiotaomicron assessed as susceptible isolates by CLSI agar dilution method; assay type: functional
Prevotella intermedia [12] = experiment: Antibacterial activity against Prevotella intermedia assessed as susceptible isolates by CLSI agar dilution method; assay type: functional
[13] = test system: Prevotella melaninogenica; experiment: Antibacterial activity against Prevotella melaninogenica assessed as susceptible isolates by CLSI agar dilution method; assay type: functional
[14] = test system: Peptostreptococcus anaerobius; experiment: Antibacterial activity against beta-lactamase producing Peptostreptococcus anaerobius assessed as resistant isolates by CLSI agar dilution method; assay type: functional
[15] = test system: Peptoniphilus asaccharolyticus; experiment: Antibacterial activity against beta-lactamase producing Peptoniphilus asaccharolyticus assessed as resistant isolates by CLSI agar dilution method; assay type: functional
Prevotella bivia [16] = experiment: Antibacterial activity against Prevotella bivia by CLSI agar dilution method; assay type: functional
Clostridium perfringens = experiment: microbe, parasite or virus in culture; assay type: functional
Fusobacterium varium [17] = experiment: Antibacterial activity against Fusobacterium varium assessed as susceptible isolates by CLSI agar dilution method; assay type: functional
Prevotella intermedia [18] = experiment: Antibacterial activity against Prevotella intermedia assessed as resistant isolates by CLSI agar dilution method; assay type: functional
[19] = test system: Prevotella melaninogenica; experiment: Antibacterial activity against Prevotella melaninogenica assessed as resistant isolates by CLSI agar dilution method; assay type: functional
Clostridium tertium [20] = experiment: Antibacterial activity against beta-lactamase producing Clostridium tertium assessed as resistant isolates by CLSI agar dilution method; assay type: functional
Fusobacterium nucleatum [21] = experiment: Antibacterial activity against Fusobacterium nucleatum by CLSI agar dilution method; assay type: functional
Clostridium septicum [22] = experiment: Antibacterial activity against beta-lactamase producing Clostridium septicum by CLSI agar dilution method; assay type: functional
[23] = test system: Bacteroides thetaiotaomicron; experiment: Antibacterial activity against beta-lactamase producing Bacteroides thetaiotaomicron by CLSI agar dilution method; assay type: functional
Prevotella buccae [24] = experiment: Antibacterial activity against Prevotella buccae assessed as resistant isolates by CLSI agar dilution method; assay type: functional, Segatella buccae
Prevotella bivia [25] = experiment: Antibacterial activity against Prevotella bivia assessed as resistant isolates by CLSI agar dilution method; assay type: functional
Clostridium tertium [26] = experiment: Antibacterial activity against beta-lactamase producing Clostridium tertium assessed as susceptible isolates by CLSI agar dilution method; assay type: functional
Parvimonas micra [27] = experiment: Antibacterial activity against beta-lactamase producing Micromonas micros assessed as susceptible isolates by CLSI agar dilution method; assay type: functional
Bacteroides caccae [28] = experiment: Antibacterial activity against beta-lactamase producing Bacteroides caccae assessed as resistant isolates by CLSI agar dilution method; assay type: functional
[29] = test system: Prevotella melaninogenica; experiment: Antibacterial activity against Prevotella melaninogenica by CLSI agar dilution method; assay type: functional
Bacteroides uniformis [30] = experiment: Antibacterial activity against beta-lactamase producing Bacteroides uniformis by CLSI agar dilution method; assay type: functional
Clostridium tertium [31] = experiment: Antibacterial activity against beta-lactamase producing Clostridium tertium by CLSI agar dilution method; assay type: functional
Fusobacterium nucleatum [32] = experiment: Antibacterial activity against Fusobacterium nucleatum assessed as susceptible isolates by CLSI agar dilution method; assay type: functional
Fusobacterium nucleatum [33] = experiment: Antibacterial activity against Fusobacterium nucleatum assessed as resistant isolates by CLSI agar dilution method; assay type: functional
Finegoldia magna [34] = experiment: Antibacterial activity against beta-lactamase producing Finegoldia magna by CLSI agar dilution method; assay type: functional
[35] = test system: Peptostreptococcus anaerobius; experiment: Antibacterial activity against beta-lactamase producing Peptostreptococcus anaerobius by CLSI agar dilution method; assay type: functional
[36] = test system: Fusobacterium necrophorum; experiment: Antibacterial activity against Fusobacterium necrophorum by CLSI agar dilution method; assay type: functional
Bacteroides fragilis [37] = experiment: Antibacterial activity against Bacteroides fragilis assessed as susceptible isolates by CLSI agar dilution method; assay type: functional
Bacteroides caccae [38] = experiment: Antibacterial activity against beta-lactamase producing Bacteroides caccae by CLSI agar dilution method; assay type: functional
Fusobacterium varium [39] = experiment: Antibacterial activity against Fusobacterium varium assessed as resistant isolates by CLSI agar dilution method; assay type: functional
[40] = test system: Clostridium paraputrificum; experiment: Antibacterial activity against beta-lactamase producing Clostridium paraputrificum assessed as susceptible isolates by CLSI agar dilution method; assay type: functional
Clostridium septicum [41] = experiment: Antibacterial activity against beta-lactamase producing Clostridium septicum assessed as susceptible isolates by CLSI agar dilution method; assay type: functional
[42] = test system: Fusobacterium necrophorum; experiment: Antibacterial activity against Fusobacterium necrophorum assessed as susceptible isolates by CLSI agar dilution method; assay type: functional
Finegoldia magna [43] = experiment: Antibacterial activity against beta-lactamase producing Finegoldia magna assessed as susceptible isolates by CLSI agar dilution method; assay type: functional
Bacteroides fragilis [44] = experiment: Antibacterial activity against Bacteroides fragilis by CLSI agar dilution method; assay type: functional
Phocaeicola vulgatus [45] = experiment: Antibacterial activity against beta-lactamase producing Bacteroides vulgatus assessed as susceptible isolates by CLSI agar dilution method; assay type: functional
[46] = test system: Clostridium paraputrificum; experiment: Antibacterial activity against beta-lactamase producing Clostridium paraputrificum assessed as resistant isolates by CLSI agar dilution method; assay type: functional
Bacteroides caccae [47] = experiment: Antibacterial activity against beta-lactamase producing Bacteroides caccae assessed as susceptible isolates by CLSI agar dilution method; assay type: functional
Phocaeicola vulgatus [48] = experiment: Antibacterial activity against beta-lactamase producing Bacteroides vulgatus by CLSI agar dilution method; assay type: functional
Fusobacterium mortiferum [49] = experiment: Antibacterial activity against Fusobacterium mortiferum assessed as susceptible isolates by CLSI agar dilution method; assay type: functional
[50] = test system: Clostridium paraputrificum; experiment: Antibacterial activity against beta-lactamase producing Clostridium paraputrificum by CLSI agar dilution method; assay type: functional
Prevotella buccae [51] = experiment: Antibacterial activity against Prevotella buccae assessed as susceptible isolates by CLSI agar dilution method; assay type: functional, Segatella buccae
Parvimonas micra [52] = experiment: Antibacterial activity against beta-lactamase producing Micromonas micros by CLSI agar dilution method; assay type: functional
Prevotella buccae [53] = experiment: Antibacterial activity against Prevotella buccae by CLSI agar dilution method; assay type: functional; conditions: Segatella buccae
[54] = test system: Peptostreptococcus anaerobius; experiment: Antibacterial activity against beta-lactamase producing Peptostreptococcus anaerobius assessed as susceptible isolates by CLSI agar dilution method; assay type: functional
Finegoldia magna [55] = experiment: Antibacterial activity against beta-lactamase producing Finegoldia magna assessed as resistant isolates by CLSI agar dilution method; assay type: functional
Prevotella bivia [56] = experiment: Antibacterial activity against Prevotella bivia assessed as susceptible isolates by CLSI agar dilution method; assay type: functional
Bacteroides uniformis [57] = experiment: Antibacterial activity against beta-lactamase producing Bacteroides uniformis assessed as susceptible isolates by CLSI agar dilution method; assay type: functional
Clostridium septicum [58] = experiment: Antibacterial activity against beta-lactamase producing Clostridium septicum assessed as resistant isolates by CLSI agar dilution method; assay type: functional
Bacteroides fragilis [59] = experiment: Antibacterial activity against Bacteroides fragilis assessed as resistant isolates by CLSI agar dilution method; assay type: functional

CCC[C@@H]1C[C@@H](C(=O)N[C@@H]([C@H]2O[C@H](SC)[C@H](O)[C@@H](O)[C@H]2O)[C@H](C)Cl)N(C)C1 [CLINDAMYCIN]
43%: Activity [11]
4 µg/mL: MIC90 (Fusobacterium mortiferum [5]) | MIC90 (Fusobacterium varium [8]) | MIC90 [9] | MIC90 (Fusobacterium nucleatum [21]) | MIC50 [23] | MIC90 (Finegoldia magna [34]) | MIC90 [35] | MIC90 [36] | MIC90 (Parvimonas micra [52])
0.25 µg/mL: MIC50 (Fusobacterium mortiferum [5]) | MIC50 (Fusobacterium varium [8]) | MIC50 (Fusobacterium nucleatum [21]) | MIC50 [36]
0.06 µg/mL: MIC (Veillonella parvula)
14%: Activity (Clostridium tertium [20]) | Activity [46] | Activity (Clostridium septicum [58])
37%: Activity (Bacteroides fragilis [59])
57%: Activity (Phocaeicola vulgatus [45]) | Activity (Bacteroides caccae [47]) | Activity (Bacteroides uniformis [57])
85%: Activity (Fusobacterium varium [17]) | Activity (Fusobacterium nucleatum [32]) | Activity [42] | Activity (Fusobacterium mortiferum [49])
39%: Activity (Bacteroides uniformis [1]) | Activity (Phocaeicola vulgatus [6]) | Activity (Bacteroides caccae [28])
7%: Activity (Fusobacterium mortiferum [4]) | Activity [10] | Activity (Fusobacterium nucleatum [33]) | Activity (Fusobacterium varium [39])
> 128 µg/mL: MIC90 (Prevotella intermedia [2]) | MIC90 (Prevotella bivia [16]) | MIC90 [23] | MIC90 [29] | MIC90 (Bacteroides uniformis [30]) | MIC90 (Bacteroides caccae [38]) | MIC90 (Bacteroides fragilis [44]) | MIC90 (Phocaeicola vulgatus [48]) | MIC90 (Prevotella buccae [53])
31%: Activity (Prevotella intermedia [18]) | Activity [19] | Activity (Prevotella buccae [24]) | Activity (Prevotella bivia [25])
8 µg/mL: MIC90 (Clostridium perfringens) | MIC90 (Clostridium septicum [22]) | MIC90 (Clostridium tertium [31]) | MIC90 [50]
0.12 µg/mL: MIC50 (Prevotella intermedia [2]) | MIC50 [9] | MIC50 (Prevotella bivia [16]) | MIC50 [29] | MIC50 (Finegoldia magna [34]) | MIC50 [35] | MIC50 (Parvimonas micra [52]) | MIC50 (Prevotella buccae [53])
88%: Activity [7] | Activity (Parvimonas micra [27]) | Activity (Finegoldia magna [43]) | Activity [54]
63%: Activity (Bacteroides fragilis [37])
1 µg/mL: MIC50 (Clostridium perfringens) | MIC50 (Clostridium septicum [22]) | MIC50 (Clostridium tertium [31]) | MIC50 (Bacteroides fragilis [44]) | MIC50 [50]
75%: Activity (Clostridium tertium [26]) | Activity [40] | Activity (Clostridium septicum [41])
9%: Activity (Parvimonas micra [3]) | Activity [14] | Activity [15] | Activity (Finegoldia magna [55])
2 µg/mL: MIC50 (Bacteroides uniformis [30]) | MIC50 (Bacteroides caccae [38]) | MIC50 (Phocaeicola vulgatus [48])
69%: Activity (Prevotella intermedia [12]) | Activity [13] | Activity (Prevotella buccae [51]) | Activity (Prevotella bivia [56])
